Each structure is given as a SMILES string.

The test system of assay [1] is S1 + S2 (split ATP aptamer / split G-quadruplex receptor) (DNA, aptamer, internal C12 spacer (iSpC12) after position 12 of strand 1 and after position 16 of strand 2) TGGGTGGGTTTTTTTACCTGGGGGAGTAT/TGCGGAGGAAGGTTTTTTTAGGGCGGGT
In words: G4-hemin peroxidase activity (Amplex Red) in LUVs. As to conditions: ATP 0-1.0 mM; hemin 4 μM; 100 mM Tris-HCl pH 7.0; functional readout.

Assay [2] has the same test system. Kind of assay: ThT fluorescence enhancement at 504 nm. Particulars: 2.2-fold with 1.0 mM ATP; ThT 20 μM; 1.0 μM strands; 100 mM Tris-HCl pH 7.4.
Assay [3] has the same test system. In words: G4-hemin Amplex Red peroxidase fluorescence in LUVs. As to conditions: 100 mM Tris-HCl pH 7.0; functional readout; used instead of ATP; concentration not given.
Assay [4] deals with FAM-S1 + TAMRA-S2 (DNA, aptamer, internal C12 spacer (iSpC12) after position 11 of strand 1 and after position 16 of strand 2) TGGGTGGGTTTTTTACCTGGGGGAGTAT/TGCGGAGGAAGGTTTTTTTAGGGCGGGT
Kind of assay: FRET in LUVs. As to conditions: ATP 0-1.0 mM; FAM-S1:TAMRA-S2 1:5; Fa/Fd 0.4 to 0.5.

Assay [5] concerns S1 + S2 (split ATP aptamer / split G-quadruplex receptor) (DNA, aptamer, internal C12 spacer (iSpC12) after position 12 of strand 1 and after position 16 of strand 2) TGGGTGGGTTTTTTTACCTGGGGGAGTAT/TGCGGAGGAAGGTTTTTTTAGGGCGGGT
Kind of assay: SYBR Green I fluorescence melting. Particulars: derived from two Tm (46.2 to 55.0 °C); 1.0 mM ATP; 1.0 μM strands; 100 mM Tris-HCl pH 7.4.

Take `C=CC1=C(C)C2=Cc3c(C=C)c(C)c4[n]3[Fe]([Cl])[n]3c(c(C)c(CCC(=O)O)c3=CC3=NC(=C4)C(C)=C3CCC(=O)O)=CC1=N2`: the binding entry in assay [1] is on record as “yes”. For `Cc1ccc2c(c1)sc(-c1ccc(N(C)C)cc1)[n+]2C`, the binding entry in assay [2] was “yes”. Consider `Nc1ccn([C@@H]2O[C@H](CO)[C@@H](O)[C@H]2O)c(=O)n1`, for which the binding entry in assay [3] was “no”.

As for `Nc1nc2c(ncn2[C@@H]2O[C@H](CO)[C@@H](O)[C@H]2O)c(=O)[nH]1`, in assay [3], the binding result is “no”.

With `Nc1ncnc2c1ncn2[C@@H]1O[C@H](COP(=O)(O)OP(=O)(O)OP(=O)(O)O)[C@@H](O)[C@H]1O`, the binding result in assay [4] was “yes”. For the same compound, in assay [5], the “ΔTm (melting temperature shift)” value is 8.8 °C. Regarding `O=c1ccn([C@@H]2O[C@H](CO)[C@@H](O)[C@H]2O)c(=O)[nH]1`, the binding result in assay [3] is listed as “no”.
